Assay results as given in article PMC3671792 (Biochemical Journal, 2013).

Assays:
[1] = molecular target: T1, PfCK2 α (CK2–HA, immunoprecipitated) (Plasmodium falciparum, UniProt Q8IIR9); assay: phosphorylation of GST-Rh2b CPD by immunoprecipitated CK2-HA, phospho-specific Western blot; type: biochemical; settings: 25 uM ATP, 10 mM MgCl2, pH 7.5, 30 °C; protein substrate GST-Rh2b CPD; kinase on beads
T1 construct: gene PF3D7_1108400; full coding region with C-terminal 3xHA tag, overexpressed episomally (crt promoter) in 3D7 parasites, immunoprecipitated on anti-HA/Protein G beads, ~42 kDa band; endogenous beta1/beta2 subunits could co-precipitate

ZmCK2α = molecular target: T2, ZmCK2α (Zea mays, UniProt P28523); settings: 25 uM ATP, 10 mM MgCl2, pH 7.5, 30 °C; labelled compound; GST-Rh2b phosphorylated, GST-AMA1 not
T2 construct: gene ACK2

MmPKAc = molecular target: T3, MmPKAc (Mus musculus, UniProt P05132); settings: 25 uM ATP, 10 mM MgCl2, pH 7.5, 30 °C; labelled compound; GST-AMA1 phosphorylated, GST-Rh2b not
T3 construct: gene Prkaca

T2 sequence (P28523 whole entry): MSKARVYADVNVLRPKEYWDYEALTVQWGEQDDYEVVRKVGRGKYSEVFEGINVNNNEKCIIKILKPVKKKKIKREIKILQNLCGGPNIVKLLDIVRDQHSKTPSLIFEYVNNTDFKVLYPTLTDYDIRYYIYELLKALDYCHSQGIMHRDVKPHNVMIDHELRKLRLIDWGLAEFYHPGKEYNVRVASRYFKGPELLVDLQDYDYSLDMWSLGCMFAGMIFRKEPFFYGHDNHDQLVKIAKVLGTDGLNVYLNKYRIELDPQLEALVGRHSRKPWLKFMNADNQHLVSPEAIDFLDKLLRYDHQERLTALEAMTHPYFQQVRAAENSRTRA
T1 sequence (Q8IIR9 entry or part of it): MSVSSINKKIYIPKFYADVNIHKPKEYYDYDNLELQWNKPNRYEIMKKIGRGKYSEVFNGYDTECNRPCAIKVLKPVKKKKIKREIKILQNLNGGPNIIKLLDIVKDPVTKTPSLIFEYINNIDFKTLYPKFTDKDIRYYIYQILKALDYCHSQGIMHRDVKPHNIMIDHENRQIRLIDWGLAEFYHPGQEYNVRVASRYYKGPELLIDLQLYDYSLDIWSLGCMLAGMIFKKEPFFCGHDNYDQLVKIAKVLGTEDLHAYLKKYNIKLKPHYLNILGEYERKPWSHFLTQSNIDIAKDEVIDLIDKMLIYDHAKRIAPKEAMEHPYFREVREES

SMILES	inhibition (qualitative) [1]	in vitro kinase assay with GST-Rh2b CPD, [γ-32P]ATP (ZmCK2α)	in vitro kinase assay with GST-AMA1 CPD, [γ-32P]ATP (MmPKAc)
O=C(O)/C=C/c1cc(Br)c(Br)c(Br)c1Br [TBCA]	sensitive to heparin treatment (Figure 4E) and to increasing amounts of TBCA (Figure 4F)	–	–
Nc1ncnc2c1ncn2[C@@H]1O[C@H](COP(=O)(O)OP(=O)(O)OP(=O)(O)O)[C@@H](O)[C@H]1O [ATP]	–	the enzyme was able to phosphorylate GST–Rh2b	Although MmPKAc phosphorylated AMA1–GST, it showed no reactivity against GST–Rh2b
